Reference: ChEMBL document CHEMBL3585290, “Synthesis and biological evaluation of novel bivalent -carbolines as potential antitumor agents” (Medchemcomm, 2014)

Legend:
SK-OV-3 = test: Cytotoxicity against human SKOV3 cells after 48 hrs by MTT assay; format: functional, cell-based; conditions: SK-OV-3, 48 h
KB = test: Cytotoxicity against human KB cells after 48 hrs by MTT assay; format: functional, cell-based
[1] = Cytotoxicity against human BGC823 cells after 48 hrs by MTT assay; format: functional, cell-based; conditions: BGC-823, 48 h
769-P = test: Cytotoxicity against human 769-P cells after 48 hrs by MTT assay; format: functional, cell-based
CT26 [2] = test: Antitumor activity against mouse CT26 cells implanted in mouse assessed as tumor growth inhibition at 32.3 umol/kg, ip qd administered for 7 days starting 24 hrs post tumor implantation measured after day 21 relative to control; format: functional; conditions: read-out: TGI
A-375 = test: Cytotoxicity against human A375 cells after 48 hrs by MTT assay; format: functional, cell-based; conditions: A-375, 48 h
[3] = test system: Lewis lung carcinoma cell line; test: Antitumor activity against mouse LLC cells implanted in mouse assessed as tumor growth inhibition at 32.3 umol/kg, ip qd administered for 7 days starting 24 hrs post tumor implantation measured after day 21 relative to control; format: functional; conditions: read-out: TGI
[4] = Acute toxicity in ip dosed C57BL/6 mouse measured for 14 days; format: organism-based; conditions: in vivo
CT26 [5] = test: Antitumor activity against mouse CT26 cells implanted in mouse assessed as tumor growth inhibition at 11.1 umol/kg, ip qd administered for 7 days starting 24 hrs post tumor implantation measured after day 21 relative to control; format: functional; conditions: read-out: TGI
[6] = test system: Lewis lung carcinoma cell line; test: Antitumor activity against mouse LLC cells implanted in mouse assessed as tumor growth inhibition at 11.1 umol/kg, ip qd administered for 7 days starting 24 hrs post tumor implantation measured after day 21 relative to control; format: functional; conditions: read-out: TGI
[7] = test system: Lewis lung carcinoma cell line; test: Antitumor activity against mouse LLC cells implanted in mouse assessed as tumor growth inhibition at 26.9 umol/kg, ip qd administered for 7 days starting 24 hrs post tumor implantation measured after day 21 relative to control; format: functional; conditions: read-out: TGI
CT26 [8] = test: Antitumor activity against mouse CT26 cells implanted in mouse assessed as tumor growth inhibition at 26.9 umol/kg, ip qd administered for 7 days starting 24 hrs post tumor implantation measured after day 21 relative to control; format: functional; conditions: read-out: TGI
CT26 [9] = test: Antitumor activity against mouse CT26 cells implanted in mouse assessed as tumor growth inhibition at 212.1 umol/kg, ip qd administered for 7 days starting 24 hrs post tumor implantation measured after day 21 relative to control; format: functional; conditions: read-out: TGI
[10] = test system: Lewis lung carcinoma cell line; test: Antitumor activity against mouse LLC cells implanted in mouse assessed as tumor growth inhibition at 212.1 umol/kg, ip qd administered for 7 days starting 24 hrs post tumor implantation measured after day 21 relative to control; format: functional; conditions: read-out: TGI
CT26 [11] = test: Antitumor activity against mouse CT26 cells implanted in mouse assessed as tumor growth inhibition at 223.8 umol/kg, ip qd administered for 7 days starting 24 hrs post tumor implantation measured after day 21 relative to control; format: functional; conditions: read-out: TGI
[12] = test system: Lewis lung carcinoma cell line; test: Antitumor activity against mouse LLC cells implanted in mouse assessed as tumor growth inhibition at 223.8 umol/kg, ip qd administered for 7 days starting 24 hrs post tumor implantation measured after day 21 relative to control; format: functional; conditions: read-out: TGI
CT26 [13] = test: animal or person; conditions: Mus musculus, CT26, ip, read-out: TGI
Description: Antitumor activity against mouse CT26 cells implanted in mouse assessed as tumor growth inhibition at 114.9 umol/kg, ip qd administered for 7 days starting 24 hrs post tumor implantation measured after day 21 relative to control

[14] = test system: Lewis lung carcinoma cell line; test: animal or person; conditions: Mus musculus, ip, read-out: TGI
Description: Antitumor activity against mouse LLC cells implanted in mouse assessed as tumor growth inhibition at 114.9 umol/kg, ip qd administered for 7 days starting 24 hrs post tumor implantation measured after day 21 relative to control

SMILES	IC50 (SK-OV-3)	IC50 (KB)	IC50 [1]	IC50 (769-P)	inhibition in vivo at 32.3 µmol/kg (CT26 [2])	IC50 (A-375)	inhibition in vivo at 32.3 µmol/kg [3]	LD50 at 336 h [4]	inhibition in vivo at 11.1 µmol/kg (CT26 [5])	inhibition in vivo at 11.1 µmol/kg [6]	inhibition in vivo at 26.9 µmol/kg [7]	inhibition in vivo at 26.9 µmol/kg (CT26 [8])	inhibition in vivo at 212.1 µmol/kg (CT26 [9])	inhibition in vivo at 212.1 µmol/kg [10]	inhibition in vivo at 223.8 µmol/kg (CT26 [11])	inhibition in vivo at 223.8 µmol/kg [12]	inhibition in vivo at 114.9 µmol/kg (CT26 [13])	inhibition in vivo at 114.9 µmol/kg [14]
CCCCn1c2ccccc2c2cc(C(=O)OCCCCCCOC(=O)c3cc4c5ccccc5n(CCCC)c4cn3)ncc21	> 200 µM	15.6 µM	43.2 µM	112 µM	33.8%	18.2 µM	64.2%	162 µmol/kg										
COc1ccc(-c2nc(C(=O)OCCCCCCOC(=O)c3cc4c5ccccc5n(CCCc5ccccc5)c4c(-c4ccc(OC)cc4)n3)cc3c4ccccc4n(CCCc4ccccc4)c23)cc1	> 200 µM	218 µM	140 µM	95.5 µM		132 µM		55.8 µmol/kg	15.1%	24.6%								
O=C(OCCCCCCOC(=O)c1cc2c3ccccc3n(CCCc3ccccc3)c2cn1)c1cc2c3ccccc3n(CCCc3ccccc3)c2cn1	8.5 µM	56.4 µM	> 200 µM	29.4 µM		14.4 µM		135 µmol/kg			53.5%	28.3%						
O=C(O)c1cc2c3ccccc3n(CCCc3ccccc3)c2cn1	> 200 µM	86.4 µM	36.7 µM	56.8 µM		67.6 µM		1090 µmol/kg					20.3%	40.3%				
CCCCn1c2ccccc2c2cc(C(=O)O)ncc21	> 200 µM	67.7 µM	125 µM	42.7 µM		79.6 µM		1120 µmol/kg							18.7%	45.4%		
O=P1(N(CCCl)CCCl)NCCCO1 (configuration not stated) [CYCLOPHOSPHAMIDE ANHYDROUS]																	87.6%	88.1%
